Measurements reported in patent US6737383B1, “Herbicidal oxadiazolidines” (priority 1999, dated 2004).

Key:
bedstraw = test: Test B pre/postemergence bedstraw; format: in vivo, Galium aparine
Method in brief: (§1)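 Herbicidal effect was estimated by eye on a ten-point control scale after plants spent twelve to sixteen days in a greenhouse following soil or foliar treatment. Foliar sprays targeted plants at one to four leaves; all doses were formulated in a non-phytotoxic solvent with surfactant.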

surinam grass = test: Test B pre/postemergence surinam grass; format: in vivo, Brachiaria decumbens
Method in brief: as §1

cocklebur = test: Test B pre/postemergence cocklebur; format: in vivo, Xanthium strumarium
Method in brief: as §1

corn = test: Test B pre/postemergence corn; format: in vivo, Zea mays
Method in brief: as §1

crabgrass = test: Test B pre/postemergence crabgrass; format: in vivo, Digitaria sanguinalis
Method in brief: as §1

morningglory = test: Test B pre/postemergence morningglory; format: in vivo, Ipomoea hederacea
Method in brief: as §1

pigweed = test: Test B pre/postemergence pigweed; format: in vivo, Amaranthus retroflexus
Method in brief: as §1

rape = test: Test B pre/postemergence rape; format: in vivo, Brassica napus
Method in brief: as §1

soybean = test: Test B pre/postemergence soybean; format: in vivo, Glycine max
Method in brief: as §1

sugar beet = test: Test B pre/postemergence sugar beet; format: in vivo, Beta vulgaris
Method in brief: as §1

velvetleaf = test: Test B pre/postemergence velvetleaf; format: in vivo, Abutilon theophrasti
Method in brief: as §1

wild oat = test: Test B pre/postemergence wild oat; format: in vivo, Avena fatua
Method in brief: as §1

rice = test: Test B flood test rice; format: in vivo, Oryza sativa
Method in brief: (§2)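 Each value is a visual injury score relative to controls, with 10 meaning complete control and 0 no effect. Evaluation took place twelve to sixteen days after the 2-leaf-stage plants were treated and kept in the greenhouse.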

smallflower flatsedge = test: Test B flood test smallflower flatsedge; format: in vivo, Cyperus difformis; conditions: for S. Flatsedge plant response rating: scale of 0 to 10 where 0 is no effect and 10 is complete control
Method in brief: as §2

duck salad = test: Test B flood test duck salad; format: in vivo, Heteranthera limosa
Method in brief: as §2

bamyardgrass = test: Test B flood test barnyardgrass; format: in vivo, Echinochloa crus-galli
Method in brief: as §2

[1] = Postemergence, Rate 125 g/ha, scale of 0 to 10 where 0 is no effect and 10 is complete control
[2] = Preemergence, Rate 62 g/ha, scale 0 to 10 (0 no effect, 10 complete control)
[3] = Preemergence, Rate 125 g/ha, 0 is no effect, 10 is complete control
[4] = Preemergence, Rate 250 g/ha, scale 0 to 10, 0 is no effect, 10 is complete control
[5] = Preemergence, Rate 500 g/ha, scale 0 to 10 (0 no effect, 10 complete control)
[6] = Rate 62 g/ha, Postemergence, scale of 0 to 10 where 0 is no effect and 10 is complete control
[7] = Rate 250 g/ha, Postemergence, scale 0 to 10, 0 is no effect, 10 is complete control
[8] = Rate 500 g/ha, Postemergence, scale 0 to 10
[9] = Postemergence (flood test species), Rate 125 g/ha, scale of 0 to 10 where 0 is no effect and 10 is complete control
[10] = Rate 31 g/ha, Postemergence section (flood test species), scale 0 to 10
[11] = Rate 62 g/ha, Postemergence section, flood test species, scale of 0 to 10 where 0 is no effect and 10 is complete control
[12] = Rate 250 g/ha, Postemergence (flood test), scale 0 to 10, 0 is no effect, 10 is complete control

## CC(C)N(C(=O)n1oc(=O)n(C)c1=O)c1ccc(F)cc1 [Compound 138]
bedstraw; [1]
  Bedstraw plant response rating: 7
bedstraw; [2]
  Bedstraw plant response rating: 5
bedstraw; [3]
  Bedstraw plant response rating (0 to 10 scale): 7
bedstraw; [4]
  Bedstraw plant response rating: 10
bedstraw; [5]
  Bedstraw plant response rating: 10
bedstraw; [6]
  Bedstraw plant response rating: 2
bedstraw; [7]
  Plant response rating, Bedstraw: 8
bedstraw; Rate 500 g/ha, Postemergence, scale 0 to 10, 0 no effect, 10 complete control
  Bedstraw plant response rating: 9
Surinam grass; [1]
  B. signalgrass plant response rating: 7
Surinam grass; [2]
  B. signalgrass plant response rating: 2
Surinam grass; [3]
  B. signalgrass plant response rating (0 to 10 scale): 4
Surinam grass; [4]
  B. signalgrass plant response rating: 6
Surinam grass; [5]
  B. signalgrass plant response rating: 9
Surinam grass; [6]
  B. signalgrass plant response rating: 5
Surinam grass; [7]
  Plant response rating, B. signalgrass: 8
Surinam grass; Rate 500 g/ha, Postemergence, scale of 0 to 10 where 0 is no effect and 10 is complete control
  B. signalgrass plant response rating: 8
cocklebur; [1]
  Cocklebur plant response rating: 0
cocklebur; [2]
  Cocklebur plant response rating: 0
cocklebur; [4]
  Cocklebur plant response rating: 0
cocklebur; [5]
  Cocklebur plant response rating: 0
cocklebur; [6]
  Cocklebur plant response rating: 0
cocklebur; [7]
  Plant response rating, Cocklebur: 2
cocklebur; [8]
  Cocklebur plant response rating: 3
corn; [1]
  Corn plant response rating: 4
corn; [2]
  Corn plant response rating: 0
corn; [3]
  Corn plant response rating (0 to 10 scale): 3
corn; [4]
  Corn plant response rating: 8
corn; [5]
  Corn plant response rating: 9
corn; [6]
  Corn plant response rating: 0
corn; [7]
  Plant response rating, Corn: 7
corn; [8]
  Corn plant response rating: 7
crabgrass; [1]
  Crabgrass plant response rating: 9
crabgrass; [2]
  Crabgrass plant response rating: 9
crabgrass; [3]
  Crabgrass plant response rating (0 to 10 scale): 9
crabgrass; [4]
  Crabgrass plant response rating: 10
crabgrass; [5]
  Crabgrass plant response rating: 10
crabgrass; [6]
  Crabgrass plant response rating: 8
crabgrass; [7]
  Plant response rating, Crabgrass: 9
crabgrass; [8]
  Crabgrass plant response rating: 9
morningglory; [1]
  Morningglory plant response rating: 5
morningglory; [2]
  Morningglory plant response rating: 0
morningglory; [3]
  Morningglory plant response rating (0 to 10 scale): 0
morningglory; [4]
  Morningglory plant response rating: 3
morningglory; [5]
  Morningglory plant response rating: 4
morningglory; [6]
  Morningglory plant response rating: 5
morningglory; [7]
  Plant response rating, Morningglory: 6
morningglory; [8]
  Morningglory plant response rating: 10
pigweed; [1]
  Redroot pigweed plant response rating: 5
pigweed; [2]
  Redroot pigweed plant response rating: 9
pigweed; [3]
  Redroot pigweed plant response rating (0 to 10 scale): 10
pigweed; [4]
  Redroot pigweed plant response rating: 10
pigweed; [5]
  Redroot pigweed plant response rating: 10
pigweed; [6]
  Redroot pigweed plant response rating: 3
pigweed; [7]
  Plant response rating, Redroot pigweed: 7
pigweed; [8]
  Redroot pigweed plant response rating: 8
rape; [1]
  Rape plant response rating: 0
rape; [2]
  Rape plant response rating: 7
rape; [3]
  Rape plant response rating (0 to 10 scale): 9
rape; [4]
  Rape plant response rating: 10
rape; [5]
  Rape plant response rating: 10
rape; [6]
  Rape plant response rating: 0
rape; [7]
  Plant response rating, Rape: 2
rape; [8]
  Rape plant response rating: 7
soybean; [1]
  Soybean plant response rating: 3
soybean; [2]
  Soybean plant response rating: 0
soybean; [3]
  Soybean plant response rating (0 to 10 scale): 4
soybean; [4]
  Soybean plant response rating: 5
soybean; [5]
  Soybean plant response rating: 8
soybean; [6]
  Soybean plant response rating: 2
soybean; [7]
  Plant response rating, Soybean: 4
soybean; [8]
  Soybean plant response rating: 4
Sugar beet; [1]
  Sugarbeets plant response rating: 0
Sugar beet; [2]
  Sugarbeets plant response rating: 9
Sugar beet; [3]
  Sugarbeets plant response rating (0 to 10 scale): 10
Sugar beet; [4]
  Sugarbeets plant response rating: 10
Sugar beet; [5]
  Sugarbeets plant response rating: 10
Sugar beet; [6]
  Sugarbeets plant response rating: 0
Sugar beet; [7]
  Plant response rating, Sugarbeets: 6
Sugar beet; [8]
  Sugarbeets plant response rating: 8
velvetleaf; [1]
  Velvetleaf plant response rating: 4
velvetleaf; [2]
  Velvetleaf plant response rating: 5
velvetleaf; [3]
  Velvetleaf plant response rating (0 to 10 scale): 8
velvetleaf; [4]
  Velvetleaf plant response rating: 10
velvetleaf; [5]
  Velvetleaf plant response rating: 10
velvetleaf; [6]
  Velvetleaf plant response rating: 2
velvetleaf; [7]
  Plant response rating, Velvetleaf: 4
velvetleaf; [8]
  Velvetleaf plant response rating: 7
Wild oat; [1]
  Wild oats plant response rating: 2
Wild oat; [2]
  Wild oats plant response rating: 5
Wild oat; [3]
  Wild oats plant response rating (0 to 10 scale): 9
Wild oat; [5]
  Wild oats plant response rating: 10
Wild oat; [6]
  Wild oats plant response rating: 0
Wild oat; [7]
  Plant response rating, Wild oats: 3
Wild oat; [8]
  Wild oats plant response rating: 8
rice; [9]
  Rice plant response rating: 7
rice; [10]
  Rice plant response rating: 0
rice; [11]
  Rice plant response rating: 0
rice; [12]
  Plant response rating, Rice: 8
Smallflower flatsedge; Postemergence (flood test species), Rate 125 g/ha
  S. Flatsedge plant response rating: 0
Smallflower flatsedge; Rate 62 g/ha, Postemergence section, flood test species
  S. Flatsedge plant response rating: 0
Smallflower flatsedge; [12]
  Plant response rating, S. Flatsedge: 7
Duck salad; [9]
  Ducksalad plant response rating: 0
Duck salad; [10]
  Ducksalad plant response rating: 0
Duck salad; [11]
  Ducksalad plant response rating: 0
Duck salad; [12]
  Plant response rating, Ducksalad: 2
bamyardgrass; [9]
  Barnyardgrass plant response rating: 0
bamyardgrass; [10]
  Barnyardgrass plant response rating: 0
bamyardgrass; [11]
  Barnyardgrass plant response rating: 0
bamyardgrass; [12]
  Plant response rating, Barnyardgrass: 8
